Laboratory results reported in publication PMC2430196, “Antagonist affinity measurements at the Gi-coupled human histamine H3 receptor expressed in CHO cells” (BMC Pharmacology, 2008).
Read-outs that look alike come from different tables or passages of the source. Each block holds one molecule with its values, some of them ahead of it.

Columns and labels:
[1] = biological target: T1, human histamine H3 receptor (Homo sapiens, UniProt Q9Y5N1); test: CRE-SPAP gene transcription in forskolin-stimulated CHO-H3-SPAP cells; details: for Kd / Schild slope / pKD values: CRE-SPAP; for Schild slope: 3 antagonist concentrations; for agonist character in CRE-SPAP screen: inhibition of forskolin-stimulated CRE-SPAP production; for pIC50, CRE-SPAP: agonism, inhibition of 4 μM forskolin-stimulated CRE-SPAP production
T1 sequence (Q9Y5N1 whole entry): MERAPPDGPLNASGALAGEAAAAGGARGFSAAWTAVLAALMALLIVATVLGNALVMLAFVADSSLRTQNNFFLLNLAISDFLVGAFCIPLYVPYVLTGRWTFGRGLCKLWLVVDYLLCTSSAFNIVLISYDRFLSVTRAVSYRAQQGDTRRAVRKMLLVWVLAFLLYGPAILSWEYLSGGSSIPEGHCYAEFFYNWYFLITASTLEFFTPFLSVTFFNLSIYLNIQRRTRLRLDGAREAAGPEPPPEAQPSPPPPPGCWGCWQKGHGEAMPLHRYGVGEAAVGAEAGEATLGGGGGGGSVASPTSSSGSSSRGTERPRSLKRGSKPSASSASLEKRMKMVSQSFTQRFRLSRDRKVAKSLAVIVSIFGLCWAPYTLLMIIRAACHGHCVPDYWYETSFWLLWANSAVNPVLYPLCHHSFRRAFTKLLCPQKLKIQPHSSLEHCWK
Method: (§1) The transfected cells were selected for neomycin resistance (1 mg/ml; for H3 receptor) and hygromycin resistance (200 μg/ml; for CRE-SPAP reporter gene) for 3 weeks and passaged twice during in this period. A single clone was then isolated by dilution cloning to give a clonal line (CHO-H3-SPAP cells). The parent cell CRE-SPAP was also used for control experiments (CHO-SPAP cells).
(§2) Cells were grown to confluence in 96-well tissue culture plates. The cells were then serum starved by removing the media and replacing it with 100 μl serum free media (DMEM/F12 containing 2 mM L-glutamine). […] Where used, pertussis toxin, at a final concentration of 100 ng/ml was added to the serum-free media and thus incubated with the cells for 24 hours. On the day of experimentation, the serum-free media was removed and replaced with 100 μl serum-free media or 100 μl serum-free media containing an antagonist at the final required concentration and the cells incubated for 1 hour. Agonist in 10 μl (diluted in serum free media) was then added to each well and the cells incubated for 10 minutes. Forskolin was then added to all but the basal wells to give a final well concentration of 4 μM and the plates incubated for 5 hours. After 5 hours, the media and all drugs were removed. […] The plates were then incubated at 65°C for 30 minutes to destroy any endogenous phosphatases. After cooling to 37°C, 100 μl 5 mM pNPP in diethanolamine buffer was added to each well and the plates incubated at 37°C in a normal atmosphere until the yellow colour developed.
(§3) Sigmoidal concentration-response curves were fitted to the data using Graphpad Prism 2 and the following equation:
(§4) Antagonist KD values were then calculated from the shift of the agonist concentration responses in the presence of a fixed concentration of antagonist using the following equation:
(§5) where DR (dose ratio) is the ratio of the agonist concentration required to stimulate an identical response in the presence and absence of a fixed concentration of antagonist [B].
(§6) In experiments where three different fixed concentrations of the same antagonist were used, Schild plots were constructed using the following equation:
Log (DR-1) = log [B] - log (KD)
(§7) These points were then fitted to a straight line.
(§8) Partial agonist dissociation constants were therefore estimated according to the method of Stephenson [35] using the following equation:
(§9) KD partial agonist=X.[P]/1−Xwhere X=[A2]−[A1]/[A3]

[2] = biological target: T1, human histamine H3 receptor; test: 3H-cAMP accumulation in forskolin-stimulated CHO-H3-SPAP cells; type: cell-based; design: secondarily transfected with the full length human histamine H3 receptor; host or cells: CHO-K1 cells with CRE-SPAP reporter (clonal line CHO-H3-SPAP); details: for intrinsic activity response in 3H-cAMP accumulation: n = 4
Method: Cells were grown to confluence in 24-well plates. The media was removed and the cells pre-labelled with ^3H-adenine by incubation with 2 μCi/ml ^3H-adenine in serum-free media (0.5 ml per well) for 3 hours. The ^3H-adenine was then removed and the cells washed by the addition then removal of 1 ml serum-free media. […] Forskolin (final concentration of 10 μM) was then added to all but the basal wells and the plates incubated for 30 minutes. The reaction was terminated by the addition of 50 μl concentrated HCl per well and the plates were then frozen. Later, the plates were thawed and ^3H-cAMP separated from other ^3H-nucleotides by sequential Dowex and alumina column chromatography, as previously described.
When the intrinsic efficacy of the antagonist ligands was examined, the antagonists were incubated for 5 hours at 37°C in order to maximise the chance of detecting any changes in ^3H-cAMP accumulation.
Response=Emax×[A]/IC50+[A]

[3] = biological target: T1, human histamine H3 receptor; test: cell-based
Method: as §1, §2, §3, §4, §5, §6
Log (DR-1) = log [B] - log (KD)
as §7, §8, §9

[4] = tested on: CHO-SPAP cells; test: CRE-SPAP gene transcription in parent CHO-SPAP cells (without the H3 receptor); type: cell-based, Chinese hamster; details: for IC50: Cricetulus griseus, CHO-SPAP cells (without the receptor), read-out: pIC50, CRE-SPAP, low potency component (converted)
Method: The response to all ligand used in this study was examined in the parent CHO-SPAP cells (expressing the reporter but not the human H3 receptor). Full 7-point concentration response curves were constructed, in the presence and absence of 4 μM forskolin. […].

[5] = tested on: CHO-H3-SPAP cells; test: Trypan blue uptake in CHO-H3-SPAP cells; details: 5 hours incubation
[6] = biological target: T1, human histamine H3 receptor
Method: as §1, §2, §3, §4, §5, §6
Log (DR-1) = log [B] - log (KD)
as §7, §8, §9

[7] = Log KD values, agonist N-α-methylhistamine
[8] = Log KD values, agonist R-α-methylhistamine
[9] = Log KD values, agonist S-α-methylhistamine
[10] = Log KD values, agonist VUF 8430
[11] = Log KD values, agonist histamine
[12] = Log KD values, agonist immethridine
[13] = Log KD values, agonist impentamine (first component of the response)
[14] = Log KD values, agonist proxyfan
[15] = agonism, inhibition of 10 μM forskolin-stimulated 3H-cAMP accumulation, CHO-H3-SPAP cells, read-out: pIC50, 3H-cAMP accumulation (converted)
[16] = agonism, inhibition of 10 μM forskolin-stimulated 3H-cAMP accumulation, CHO-H3-SPAP cells

SMILES: S=C(NC1CCCCC1)N1CCC(c2cnc[nH]2)CC1 [thioperamide]
- Schild slope ([1]; agonist N-α-methylhistamine): 0.98 ± 0.07
- Schild slope ([1]; agonist R-α-methylhistamine): 1.00 ± 0.05
- Schild slope ([1]; agonist S-α-methylhistamine): 1.01 ± 0.08
- Schild slope ([1]; agonist histamine): 1.01 ± 0.03
- Schild slope ([1]; agonist imetit): 1.02 ± 0.07
- Schild slope ([1]; agonist immepip): 1.06 ± 0.02
- Schild slope ([1]; agonist immethridine): 1.08 ± 0.04
- Schild slope ([1]; agonist proxyfan): 1.02 ± 0.03
- inverse agonist response, 3H-cAMP accumulation ([2]; 5 hours incubation with ligand): 106.3 ± 2.6 % basal

SMILES: NCCCCCc1cnc[nH]1 [impentamine]
- IC50 ([4]; with forskolin): 4680 nM
- IC50 ([4]; without forskolin): 3890 nM
- intracellular uptake of trypan blue [5]: did not show any intracellular uptake of trypan blue
- agonist character in CRE-SPAP screen ([1]; CHO-H3-SPAP cells): partial agonist actions
- IC50 ([1]; pIC50, CRE-SPAP, low potency component, CHO-H3-SPAP cells, absence of forskolin, with PTX pre-incubation): 5130 nM
- IC50 ([1]; pIC50, CRE-SPAP, low potency component, CHO-H3-SPAP cells, absence of forskolin, without PTX pre-incubation): 6610 nM
- IC50 ([1]; pIC50, CRE-SPAP, second component remaining after PTX, forskolin-stimulated CHO-H3-SPAP cells, 24 hours pre-incubation with PTX): 6030 nM
- IC50 ([1]; pIC50 Site 1, CRE-SPAP, first component of two-component response, forskolin-stimulated CHO-H3-SPAP cells): 25.7 nM
- pIC50 Site 2, CRE-SPAP ([1]; second component of two-component response, forskolin-stimulated CHO-H3-SPAP cells): Site 2 5.40 ± 0.05
- IC50 ([2]; read-out: pIC50, 3H-cAMP accumulation (converted)): 3.72 nM

SMILES: c1cc(CN2CCCCC2)cc(OCCCNc2nc3ccccc3s2)c1 [zolatidine]
- Kd [6]: 282 nM
- pKD values ([1]; agonist N-α-methylhistamine): 6.46 ± 0.07
- Schild slope ([1]; agonist N-α-methylhistamine): 1.10 ± 0.12
- pKD values ([1]; agonist R-α-methylhistamine): 6.52 ± 0.06
- Schild slope ([1]; agonist R-α-methylhistamine): 1.04 ± 0.04
- pKD values ([1]; agonist S-α-methylhistamine): 6.54 ± 0.07
- Schild slope ([1]; agonist S-α-methylhistamine): 1.10 ± 0.07
- pKD values ([1]; agonist VUF 8430): 6.38 ± 0.10
- pKD values ([1]; agonist histamine): 6.51 ± 0.07
- Schild slope ([1]; agonist histamine): 1.01 ± 0.04
- pKD values ([1]; agonist imetit): 6.62 ± 0.08
- Schild slope ([1]; agonist imetit): 1.17 ± 0.05
- Schild slope ([1]; agonist immepip): 1.18 ± 0.08
- pKD values ([1]; agonist immethridine): 6.66 ± 0.05
- Schild slope ([1]; agonist immethridine): 0.96 ± 0.02
- pKD values ([1]; agonist impentamine (first component of the response)): 6.52 ± 0.10
- pKD values ([1]; agonist proxyfan): 6.78 ± 0.06
- Schild slope ([1]; agonist proxyfan): 0.91 ± 0.11
- intrinsic activity response in 3H-cAMP accumulation ([2]; 5 hours incubation with ligand): No responses

SMILES: Cn1cncc1CCN [3-methylhistamine]
- IC50 [1]: 13500 nM

SMILES: Cc1nc[nH]c1CCN [4-methylhistamine]
- IC50 [1]: 11500 nM

SMILES: Cc1nc(N)sc1CCN [amthamine]
- IC50 [1]: 13500 nM

SMILES: CC(CCCCC(=O)Nc1ccc(C(F)(F)F)cc1)NCCc1cnc[nH]1 (centres unmarked) [HTMT, histamine trifluoromethyl toluidide]
- pIC50, CRE-SPAP ([1]; CHO-H3-SPAP cells): 5.21 ± 0.18

SMILES: NC(=NCc1ccc(Cl)cc1)SCCCc1cnc[nH]1 [clobenpropit]
- Schild slope ([1]; agonist N-α-methylhistamine): 1.08 ± 0.07
- Schild slope ([1]; agonist R-α-methylhistamine): 1.10 ± 0.06
- Schild slope ([1]; agonist S-α-methylhistamine): 1.09 ± 0.04
- Schild slope ([1]; agonist histamine): 0.98 ± 0.03
- Schild slope ([1]; agonist imetit): 1.02 ± 0.04
- Schild slope ([1]; agonist immepip): 1.05 ± 0.02
- Schild slope ([1]; agonist immethridine): 1.02 ± 0.04
- intrinsic activity response in 3H-cAMP accumulation ([2]; 5 hours incubation with ligand): No responses

SMILES: Cn1cnc(CCN)c1 [1-methylhistamine]
- IC50 [1]: 20000 nM

SMILES: NCCc1ccccn1 [2-pyridylethylamine]
- IC50 [1]: > 100000 nM

SMILES: c1cc(Cc2cnc[nH]2)ccn1 [immethridine]
- IC50 [1]: 0.389 nM
- IC50 [2]: 0.174 nM

SMILES: CNCCc1cnc[nH]1 [N-α-methylhistamine]
- pIC50, CRE-SPAP ([1]; CHO-H3-SPAP cells): 8.89 ± 0.04
- pIC50, 3H-cAMP accumulation [2, 16]: 9.45 ± 0.05

The next lines start with results.

- IC50 [1]: 0.437 nM
- IC50 [2]: 0.123 nM
SMILES: N=C(N)SCCc1cnc[nH]1 [imetit]

- Kd [3]: 2570 nM
- Kd [1, 7]: 3090 nM
- Kd [1, 8]: 3630 nM
- Kd [1, 9]: 3630 nM
- Kd [1, 10]: 7410 nM
- Kd [1, 11]: 4790 nM
- Kd ([1]; Log KD values, agonist imetit): 2630 nM
- Kd [1, 12]: 2950 nM
- Kd [1, 13]: 6170 nM
- Kd [1, 14]: 4070 nM
- intrinsic activity response in 3H-cAMP accumulation ([2]; 5 hours incubation with ligand): No responses
SMILES: CN(C)CCC(c1ccc(Cl)cc1)c1ccccn1 (centres unmarked) [chlorpheniramine]

- Kd [3]: 1910 nM
- Kd [1, 7]: 2140 nM
- Kd [1, 8]: 2240 nM
- Kd [1, 9]: 2140 nM
- Kd [1, 10]: 7760 nM
- Kd [1, 11]: 2340 nM
- Kd ([1]; Log KD values, agonist imetit): 2510 nM
- Kd [1, 12]: 4170 nM
- Kd [1, 13]: 2570 nM
- Kd [1, 14]: 5750 nM
- intrinsic activity response in 3H-cAMP accumulation ([2]; 5 hours incubation with ligand): No responses
SMILES: CC(C1=C(CCN(C)C)Cc2ccccc21)c1ccccn1 (centres unmarked) [dimethindine, dimethindene]

- IC50 [1]: 2570 nM
SMILES: CN(C)CCCSC(=N)N [dimaprit]

- IC50 [1]: 427 nM
- agonist character in CRE-SPAP screen ([1]; CHO-H3-SPAP cells): partial agonist actions
- IC50 [2, 15]: 224 nM
SMILES: CNC(=S)NCCCCc1cnc[nH]1 [burimamide]

- pIC50, CRE-SPAP ([1]; CHO-H3-SPAP cells): 5.66 ± 0.08
- pIC50, 3H-cAMP accumulation [2, 16]: 6.38 ± 0.07
SMILES: Br.Br.N=C(N)NCCSC(=N)N [VUF 8430, 2-[(aminoiminmethyl)amino]ethyl carbamimidothioic acid ester dihydrobromide]

- IC50 [1]: 0.224 nM
- IC50 [2]: 0.0501 nM
SMILES: c1nc(CC2CCNCC2)c[nH]1 [immepip]

- IC50 [1]: 16.2 nM
- IC50 [2, 15]: 4.9 nM
SMILES: c1ccc(COCCCc2c[nH]cn2)cc1 [proxyfan]

- Kd [3]: 8.13 nM
- Schild slope ([1]; agonist N-α-methylhistamine): 0.98 ± 0.05
- Schild slope ([1]; agonist R-α-methylhistamine): 1.00 ± 0.06
- Schild slope ([1]; agonist S-α-methylhistamine): 1.08 ± 0.04
- Schild slope ([1]; agonist histamine): 1.07 ± 0.03
- Schild slope ([1]; agonist imetit): 1.18 ± 0.09
- Schild slope ([1]; agonist immepip): 1.09 ± 0.05
- Schild slope ([1]; agonist immethridine): 1.14 ± 0.08
- Kd ([1]; pKD values, agonist N-α-methylhistamine): 5.37 nM
- Kd ([1]; pKD values, agonist R-α-methylhistamine): 5.75 nM
- Kd ([1]; pKD values, agonist S-α-methylhistamine): 5.25 nM
- Kd ([1]; pKD values, agonist VUF 8430): 7.08 nM
- Kd ([1]; pKD values, agonist histamine): 5.13 nM
- Kd ([1]; pKD values, agonist imetit): 5.75 nM
- Kd ([1]; pKD values, agonist immethridine): 3.8 nM
- Kd ([1]; pKD values, agonist impentamine (first component of the response)): 4.17 nM
- Kd ([1]; pKD values, agonist proxyfan): 2.75 nM
- inverse agonist response, 3H-cAMP accumulation ([2]; 5 hours incubation with ligand): 120 ± 1.5 % basal
- EC50 ([2]; 5 hours incubation with ligand, read-out: pEC50, inverse agonist response, 3H-cAMP accumulation (converted)): 3.09 nM
SMILES: C[C@H]1[C@H]2CC[C@H]3[C@@H]4CC=C5C[C@@H](N(C)C)CC[C@]5(C)[C@H]4CC[C@]23CN1C [conessine]

- Kd [3]: 2450 nM
- Kd [1, 7]: 4570 nM
- Kd [1, 8]: 2630 nM
- Kd [1, 9]: 3390 nM
- Kd [1, 10]: 5500 nM
- Kd [1, 11]: 4470 nM
- Kd ([1]; Log KD values, agonist imetit): 3720 nM
- Kd [1, 12]: 2950 nM
- Kd [1, 13]: 2240 nM
- Kd [1, 14]: 5890 nM
- intrinsic activity response in 3H-cAMP accumulation ([2]; 5 hours incubation with ligand): No responses
SMILES: Cc1ccc(/C(=C\CN2CCCC2)c2ccccn2)cc1 [triprolidine]

- Kd [3]: 19.1 nM
- IC50 [1]: 25.1 nM
- Kd [1, 7]: 11.2 nM
- Kd [1, 8]: 25.1 nM
- Kd [1, 9]: 17.8 nM
- Kd [1, 10]: 19.5 nM
- Kd [1, 11]: 17 nM
- Kd ([1]; Log KD values, agonist imetit): 14.1 nM
- Kd [1, 12]: 16.2 nM
- Kd [1, 14]: 15.8 nM
- agonist character in CRE-SPAP screen ([1]; CHO-H3-SPAP cells): agonist properties
- IC50 [2, 15]: 3.89 nM
- IC50 ([2]; pIC50, 3H-cAMP accumulation, 5 hours incubation, partial agonist response, 5 hours incubation with ligand): 3.8 nM
SMILES: Br.Br.c1nc(CCCC2CCNCC2)c[nH]1 [VUF 5681, 4-[3-(1H-imidazol-4-yl)propyl]piperidine dihydrobromide]
- CRE-SPAP response in parent CHO-SPAP cells ([4]; presence and absence of 4 μM forskolin, up to 100 μM (10 μM for zolatidine, conessine, iodophenpropit, clobenpropit, clemastine)): A small decrease from maximum was seen only at the highest concentration (100 μM)
